US10221129B2, “Inhibitors of human immunodeficiency virus replication” (ViiV HEALTHCARE UK (NO.5) LIMITED, priority 2015, dated 2019)

Experiments:
[1] = Compound cytotoxicity, XTT-based colorimetric assay; assay type: cell-based; conditions: human, uninfected MT2 cells, day 4, XTT
In short: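 Run under the antiviral-assay protocol but without virus. Viability was read on day 4 and CC50 values were derived from the readout.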

[2] = test system: recombinant NL4-3 virus (nef section replaced with Renilla luciferase gene) in MT-2 cells; assay: HIV cell culture assay (antiviral activity, luciferase readout); assay type: cell-based; conditions: Renilla, NL43, MT-2 cells infected for 4-5 days with recombinant NL4-3 Renilla luciferase virus
In short: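 Serial compound dilutions tested in MT-2 cells infected for 4-5 days with 293T-derived NL4-3 virus carrying Renilla luciferase in place of part of nef. Antiviral activity quantified as luciferase activity, read with a live-cell substrate.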

Row | Compound | CC50 at 4 days [1] [µM] | EC50 [2] [µM]
1 | COc1ccc(N(C)C(=O)[C@H](Cc2ccccc2)NC(=O)NS(=O)(=O)N(C)c2cccc(OC)c2)cc1 [JB-34] | > 100 | 0.08
2 | COc1ccc(N(C)C(=O)[C@H](Cc2ccccc2)NC(=O)NS(=O)(=O)N(C)c2ccc(Cl)cc2)cc1 [JB-35] | > 100 | 0.08
3 | COc1ccc(N(C)C(=O)[C@H](Cc2ccccc2)NC(=O)NS(=O)(=O)Nc2ccc3[nH]cnc3c2)cc1 [JB-36] | > 100 | 2.26
4 | COc1ccc(N(C)C(=O)[C@H](Cc2ccccc2)NC(=O)NS(=O)(=O)N(C)c2cccc(Cl)c2)cc1 [JB-37] | > 100 | 0.06
5 | COc1ccc(N(C)C(=O)[C@H](Cc2ccccc2)NC(=O)NS(=O)(=O)NCc2ccccc2F)cc1 [JB-38] | > 100 | 1.6
6 | COc1ccc(N(C)C(=O)[C@H](Cc2ccccc2)NC(=O)NS(=O)(=O)NCc2ccccn2)cc1 [JB-39] | > 100 | 1.38
7 | COc1ccc(N(C)C(=O)[C@H](Cc2ccccc2)NC(=O)NS(=O)(=O)N(C)C(c2ccccc2)c2ccccc2)cc1 [JB-40] | 66.5 | 2.88
8 | CCc1ccc(CN(C)S(=O)(=O)NC(=O)N[C@@H](Cc2ccccc2)C(=O)N(C)c2ccc(OC)cc2)cc1 [JB-41] | > 33.3 | 5.06
9 | COc1ccc(N(C)C(=O)[C@H](Cc2ccccc2)NC(=O)NS(=O)(=O)NCc2nccs2)cc1 [JB-43] | > 100 | 0.76
10 | COc1ccc(N(C)C(=O)[C@H](Cc2ccccc2)NC(=O)NS(=O)(=O)N2Cc3ccncc3C2)cc1 [JB-44] | > 100 | 1.75
11 | COc1ccc(N(C)C(=O)[C@H](Cc2ccccc2)NC(=O)NS(=O)(=O)NCc2cnc3ccccc3c2)cc1 [JB-45] | > 50 | 9.45
12 | COc1ccc(N(C)C(=O)[C@H](Cc2ccccc2)NC(=O)NS(=O)(=O)Nc2cc(F)cc(F)c2)cc1 [JB-46] | > 100 | 0.08
13 | COc1ccc(N(C)C(=O)[C@H](Cc2ccccc2)NC(=O)NS(=O)(=O)NCc2cccc(-n3cccn3)c2)cc1 [JB-47] | > 100 | 3.41
14 | COc1ccc(N(C)C(=O)[C@H](Cc2ccccc2)NC(=O)NS(=O)(=O)Nc2cc(F)ccc2F)cc1 [JB-48] | > 100 | 0.17
15 | COc1ccc(N(C)C(=O)[C@H](Cc2ccccc2)NC(=O)NS(=O)(=O)Nc2cc(Cl)ccc2F)cc1 [JB-49] | > 100 | 0.2
16 | COc1ccc(N(C)C(=O)[C@H](Cc2ccccc2)NC(=O)NS(=O)(=O)Nc2ccc(F)cc2)cc1 [JB-50] | > 100 | 0.1
17 | COc1ccc(N(C)C(=O)[C@H](Cc2ccccc2)NC(=O)NS(=O)(=O)Nc2ccc(F)c(F)c2)cc1 [JB-51] | > 100 | 0.11
18 | COc1ccc(N(C)C(=O)[C@H](Cc2ccccc2)NC(=O)NS(=O)(=O)Nc2ccc(NC(=O)N(C)C)cc2)cc1 [JB-52] | > 100 | 5.94
19 | COc1ccc(N(C)C(=O)[C@H](Cc2ccccc2)NC(=O)NS(=O)(=O)N2CCCCC2c2ccccc2)cc1 (stereo partly drawn) [JB-53] | 85.5 | 1.1
20 | COc1ccc(N(C)C(=O)[C@H](Cc2ccccc2)NC(=O)NS(=O)(=O)NCc2ccc3nc(C)[nH]c3c2)cc1 [JB-54] | > 100 | 12
21 | COc1ccc(N(C)C(=O)[C@H](Cc2ccccc2)NC(=O)NS(=O)(=O)NCc2cncn2C)cc1 [JB-55] | > 100 | 14.8
22 | COc1ccc(N(C)C(=O)[C@H](Cc2ccccc2)NC(=O)NS(=O)(=O)NCc2ccccc2)cc1 [JB-56] | > 100 | 1.87
23 | COc1ccc(N(C)C(=O)[C@H](Cc2ccccc2)NC(=O)NS(=O)(=O)NCc2cccc(F)c2)cc1 [JB-57] | > 100 | 6.43
24 | COc1ccc(N(C)C(=O)[C@H](Cc2ccccc2)NC(=O)NS(=O)(=O)NC(C)c2cccc(C)n2)cc1 (stereo partly drawn) [JB-58] | > 100 | 0.69
